According to patent publication US20250161297A1, “COMPOSITIONS AND METHODS FOR INHIBITING FSP1” (THE REGENTS OF THE UNIVERSITY OF CALIFORNIA, priority 2022, published 2025):

Columns and labels:
NQO1 = molecular target: T1, NQO1 (Homo sapiens, UniProt P15559); assay: NQO1 CoQ oxidoreductase activity assay; assay type: biochemical
T1 construct: His6 (N); TEV cleavage site (N); made in house; host or cells: E. coli LOBSTR-BL21 (DE3)
Experimental: FSP1 and NQO1% Activity Curves: To measure in vitro activity of FSP1 and NQO1 for IC50 calculation, recombinant purified FSP1 and NQO1 were diluted in PBS. FSEN1 was dissolved and diluted in DMSO, and […] FSEN1 and 12.5 μL FSP1/NQO1 were mixed on an orbital shaker for 45 seconds at 450 rpm and incubated for 30 minutes in a NBS polystyrene 384-well plate (Corning Ref: 3640) at RT. NADH (Millipore Cat: 481913) was dissolved and diluted in PBS, and CoQ1 (Sigma-Aldrich SKU: C7956) was dissolved in DMSO and diluted in PBS. Diluted NADH and CoQ1 were combined into a 2×reaction mix and added to the plate wells to start the reaction. Final well volume was 25 μL, and final concentrations were 12.5n M FSP1, 400 µM CoQ1, 500 µM NADH, and 0.01-20 µM FSEN1. NADH Absorbance (355 nm) was measured as an inverse read-out of enzymatic product formation on a kinetic cycle with an interval time of 2.5 minutes at RT. All data was acquired using a Tecan infinite M1000. Raw data from 3 biological replicates were then plotted and initial slopes were calculated using a linear regression in prism (GraphPad), and all rates were normalized to vehicle (0 nM FSEN1) and No Protein controls where the highest and lowest slope values were used as 0 and 100%. […]

H460^C cells = assay: GPX4 inhibitor-induced cell death with FSEN1 co-treatment; assay type: cell-based
Experimental: For cell-based screen, cells were seeded in triplicate at a density of 500-750 cells per 50 μL per well in black 384-well plates (NUNC) and (Corning) 24 hr before start of imaging. After 24 hr, an additional 50 μL of drug infused medium containing 30 nM SYTOX Green Dead Cell Stain was carefully placed into the wells on top of existing medium. The plates were immediately transferred to an IncuCyte S3 imaging system (Essen Bioscience) enclosed in an incubator set to 37° C. and 5% CO2. One image per well were captured in the phase, green, and red channels every 1.5 or 3 hr over a 24 hr period, and the ratio of SYTOX Green-positive objects (dead cells) to SYTOX Green-positive plus Sg-SAFE mCherry-positive objects (total cells) was quantified using S3 image analysis software (Essen Bioscience). For each treatment condition, the SYTOX-to-′SYTOX+mCherry′-object ratio was plotted against the 24 hr imaging interval, the Area Under the Curve (AUC) was calculated and the average AUC was plotted using Prism (GraphPad). To calculate the half-maximal effective concentration (EC50) values, the AUC curve was fit to a variable slope function comparing response to drug concentration.
Synergy experiments: For cell-based synergy experiments, cells were seeded at a density of 750 cells per 25 μL per well in four black 384-well plates (Corning) 24 hr before start of imaging. After 24 hr, an additional 25 μL of drug infused medium containing 30 nM SYTOX Green Dead Cell Stain was carefully placed into the wells on top of existing medium. The plates were immediately transferred to an IncuCyte S3 imaging system (Essen Bioscience) enclosed in an incubator set to 37° C. and 5% CO2. One image per well were captured in the phase, green, and red channels every 4 hr over a 24 hr period, and the ratio of SYTOX Green-positive objects (dead cells) to SYTOX Green-positive plus Sg-SAFE mCherry-positive objects (total cells) was quantified using S3 image analysis software (Essen Bioscience). For each treatment condition, the SYTOX-to-′SYTOX+mCherry′-object ratio was plotted against the 24 hr imaging interval, the Area Under the Curve (AUC) was calculated, and the average AUC was plotted as a function of drug concentration (for example, RSL3) using Prism (GraphPad). To calculate the half-maximal effective concentration (EC50) values, the AUC curve was fit to a variable slope function comparing response to drug concentration.

T1 sequence (P15559 2-274): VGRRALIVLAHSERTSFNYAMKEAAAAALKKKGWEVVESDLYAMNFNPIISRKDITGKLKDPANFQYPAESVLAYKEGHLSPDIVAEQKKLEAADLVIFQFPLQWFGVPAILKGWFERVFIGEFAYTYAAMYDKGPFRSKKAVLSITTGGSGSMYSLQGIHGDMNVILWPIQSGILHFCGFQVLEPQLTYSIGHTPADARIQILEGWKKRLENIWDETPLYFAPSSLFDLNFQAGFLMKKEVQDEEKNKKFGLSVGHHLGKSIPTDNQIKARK

SMILES: COc1ccc(N2CCN(Cc3cn4c(-c5ccc(Br)cc5)nnc4s3)CC2)cc1 [FSEN1]
- effect on the CoQ oxidoreductase activity of NQO1 (NQO1): no effect
- sensitization to GPX4 inhibitors RSL3 and ML162 (H460^C cells): sensitized
